The source of these data is US20210353577A1, “METHODS FOR THE PREPARATION OF A LEVOTHYROXINE SOLUTION” (EMP Levo US B.V., priority 2016, published 2021).

For data set [1], the system named is micro-organisms as shown in the tables 10A-F. The experiment in a line: Efficacy of antimicrobial preservation, overall judgement. Type of data set: cell-based. Particulars: Ph. Eur. 9.0, section 5.1.3; in oral levothyroxine solution. The source says: Preservation Efficacy Tests […] As comparison, sample 1 of U.S. Pat. No. 9,345,722 has been prepared, in accordance with example 6 of U.S. Pat. No. 9,345,722. The test consists of challenging the sample solution with a prescribed inoculum of suitable micro-organisms as shown in the tables 10A-F, storing the inoculated solution at ambient temperature, avoiding sunlight, withdrawing samples from the container at specified intervals of time and counting the micro-organisms in the samples so removed. The preservative properties of the solution are adequate if, in the conditions of the test, there is a significant fall or no increase, as appropriate, in the number of micro-organisms in the inoculated solution after 14 and 28 days. ATCC stands for the deposit number of the micro-organism at the American Type Culture Collection ATCC.

The conditions of data set [2]: cited from earlier work; for behaviour in an aqueous solution: GB2191695.

Each structure is given as a SMILES string. Like-named read-outs stand apart in the source and are kept apart here.

With `C/C=C/C=C/C(=O)O` [sorbic acid], the “efficacy of antimicrobial preservation in words” value (shortened to “efficacy”) in data set [1] was “comply with the relevant criteria”.
Turning to `C/C=C/C=C/C(=O)[O-].[K+]` [potassium sorbate], in data set [1], the “efficacy” value is “results similar to that of sorbic acid”.
Take `N[C@@H](Cc1cc(I)c(Oc2cc(I)c(O)c(I)c2)c(I)c1)C(=O)[O-].[Na+]` [Levothyroxine sodium, sodium (2S)-2-amino-3-[4-(4-hydroxy-3,5-diiodophenoxy)-3,5-diiodophenyl]-propanoate]: the “solubility in 96% ethanol” value in data set [2] (96% ethanol) is recorded as “slightly soluble”. The solubility in water entry in data set [2] (water) was “very slightly soluble”.
For `C/C=C/C=C/C(=O)[O-].[Na+]` [sodium sorbate], in data set [1], the “efficacy” value is “results similar to that of sorbic acid”.
For the compound `COC(=O)c1ccc(O)cc1.[Na]` [sodium methyl paraben, sodium methyl parahydroxybenzoate], the “efficacy” value in data set [1] is “less efficient preservative”.
As to `O=C([O-])c1ccccc1.[Na+]` [sodium benzoate], the “efficacy” value in data set [1] is “comply with the relevant criteria”.
Still for that read-out and setting: the value for `O=C(O)c1ccccc1` [benzoic acid] was “comply with the relevant criteria”; that for `O=C([O-])c1ccccc1.[K+]` [potassium benzoate] was “results similar to that of sodium benzoate”.
As to `N[C@@H](Cc1cc(I)c(Oc2cc(I)c(O)c(I)c2)c(I)c1)C(=O)O` [levothyroxine, 3,5,3′,5′-tetraiodo-L-thyronine], the “behaviour in an aqueous solution” value was “dissolves” in data set [2] (pH 11-12), “formation of a precipitate” in data set [2] (pH lowered further to pH 5-6) and “white pale suspension” in data set [2] (pH lowered to pH 7).
